≈ marks a conversion by molar mass, not a printed value.

Data set [1] is described as follows: Hemolytic activity in human RBC. Format: cell-based, Erythrocyte. Conditions: human red blood cells (erythrocytes).
In another data set the test system is Candida tropicalis. As to the kind of experiment: Antifungal activity against Candida tropicalis assessed as fungal growth inhibition by CLSI protocol based microbroth dilution method. Format: functional.
The test system of data set [2] is Candida albicans. As to the kind of experiment: Antifungal activity against Candida albicans assessed as fungal growth inhibition by CLSI protocol based microbroth dilution method. Format: functional.
The subject of a further data set is Aspergillus fumigatus. As to the kind of experiment: Antifungal activity against Aspergillus fumigatus assessed as fungal growth inhibition by CLSI protocol based microbroth dilution method. It is filed as functional. A general note: In broth dilution the organism is exposed to a series of concentrations in liquid medium.
In data set [3] the test system is Candida albicans. As to the kind of experiment: Antifungal activity against Candida albicans ATCC 90023 assessed as fungal growth inhibition by CLSI protocol based microbroth dilution method. It is filed as functional.
In another data set the test system is Candida parapsilosis. As to the kind of experiment: Antifungal activity against Candida parapsilosis ATCC 22019 assessed as fungal growth inhibition by CLSI protocol based microbroth dilution method. It is filed as functional. The following applies: Lodderomyces parapsilosis.

For the molecule `N#CCN(CC#N)C(=O)CN1CCN(c2ncnc3c2ncn3CC(=O)c2nccs2)CC1`, the HC50 (commonly the concentration giving 50% haemolysis) in data set [1] was above 256 µg/mL. Also, the minimal inhibitory concentration (MIC) (as a rule, the lowest concentration that inhibits growth of the organism) with Candida tropicalis was 64 µg/mL (≈ 138 µM); in the data set on Candida albicans [2], 16 µg/mL (≈ 34.4 µM); in the data set with Aspergillus fumigatus, 64 µg/mL (≈ 138 µM); in the data set on Candida albicans [3], 32 µg/mL (≈ 68.9 µM); in the data set on Candida parapsilosis, 128 µg/mL (≈ 276 µM).
Molecule `O=C(Cn1cnc2c(N3CCNCC3)ncnc21)c1nccs1` gave an HC50 in data set [1] above 256 µg/mL. The MIC in the data set on Candida tropicalis is 32 µg/mL (≈ 97.1 µM); in the data set with Candida albicans [2] it was 64 µg/mL (≈ 194 µM); in the data set on Aspergillus fumigatus it was 64 µg/mL (≈ 194 µM); with Candida albicans [3] it was 32 µg/mL (≈ 97.1 µM); in the data set on Candida parapsilosis, 256 µg/mL (≈ 777 µM).
On to `O=C(Cn1cnc2c(N3CCCCC3)ncnc21)c1nccs1`, for which, in data set [1], the HC50 is above 256 µg/mL. For the same molecule, the MIC with Candida tropicalis is 64 µg/mL (≈ 195 µM); in the data set on Candida albicans [2], 1 µg/mL (≈ 3.05 µM); in the data set with Aspergillus fumigatus it was 128 µg/mL (≈ 390 µM); with Candida albicans [3], 256 µg/mL (≈ 780 µM); with Candida parapsilosis, 64 µg/mL (≈ 195 µM).
In data set [1], `Cc1ccc(CN2CCN(c3ncnc4c3ncn4CC(=O)c3nccs3)CC2)cc1` displayed an HC50 above 256 µg/mL. Besides, the MIC is 64 µg/mL (≈ 148 µM) in the data set on Candida tropicalis; 16 µg/mL (≈ 36.9 µM) in the data set on Candida albicans [2]; 64 µg/mL (≈ 148 µM) in the data set on Aspergillus fumigatus; 128 µg/mL (≈ 295 µM) with Candida albicans [3]; 64 µg/mL (≈ 148 µM) in the data set with Candida parapsilosis.
Molecule `CC(C)(C)OC(=O)N1CCN(C(=O)CN2CCN(c3ncnc4c3ncn4CC(=O)c3nccs3)CC2)CC1` returned a 50% haemolytic concentration (HC50) in data set [1] above 256 µg/mL. Further, the MIC was determined as 64 µg/mL (≈ 115 µM) with Candida tropicalis; 32 µg/mL (≈ 57.6 µM) in the data set on Candida albicans [2]; 128 µg/mL (≈ 230 µM) in the data set on Aspergillus fumigatus; 16 µg/mL (≈ 28.8 µM) in the data set with Candida albicans [3]; 128 µg/mL (≈ 230 µM) in the data set on Candida parapsilosis.
For `O=C(Cn1cnc2c(N3CCN(CC(=O)N4CCCC4)CC3)ncnc21)c1nccs1`, the HC50 in data set [1] is above 256 µg/mL. Also, the MIC in the data set on Candida tropicalis was 32 µg/mL (≈ 72.6 µM); in the data set on Candida albicans [2] it was 2 µg/mL (≈ 4.54 µM); with Aspergillus fumigatus it was 64 µg/mL (≈ 145 µM); in the data set with Candida albicans [3], 256 µg/mL (≈ 581 µM); in the data set on Candida parapsilosis it was 128 µg/mL (≈ 291 µM).
In the case of `C#CCN1CCN(c2ncnc3c2ncn3CC(=O)c2nccs2)CC1`, the HC50 in data set [1] is above 256 µg/mL. Further, the MIC in the data set on Candida tropicalis was found to be 256 µg/mL (≈ 697 µM); in the data set with Candida albicans [2] it was 256 µg/mL (≈ 697 µM); in the data set on Aspergillus fumigatus, 32 µg/mL (≈ 87.1 µM); in the data set on Candida albicans [3], 16 µg/mL (≈ 43.5 µM); in the data set with Candida parapsilosis it was 256 µg/mL (≈ 697 µM).
As to `CCOC(=O)CN1CCN(c2ncnc3c2ncn3C/C(=N/O)c2nccs2)CC1`, the HC50 in data set [1] was above 256 µg/mL. Besides, the MIC with Candida tropicalis was 64 µg/mL (≈ 149 µM); in the data set with Candida albicans [2] it was 4 µg/mL (≈ 9.29 µM); in the data set with Aspergillus fumigatus it was 16 µg/mL (≈ 37.2 µM); with Candida albicans [3] it was 16 µg/mL (≈ 37.2 µM); in the data set on Candida parapsilosis, 64 µg/mL (≈ 149 µM).
`O=C(Cn1cnc2c(Cl)ncnc21)c1nccs1`: the 50% haemolytic concentration (HC50) in data set [1] was above 256 µg/mL. Further, the MIC in the data set on Candida tropicalis is 32 µg/mL (≈ 114 µM); in the data set on Candida albicans [2], 64 µg/mL (≈ 229 µM); with Aspergillus fumigatus, 128 µg/mL (≈ 458 µM); in the data set on Candida albicans [3], 128 µg/mL (≈ 458 µM); in the data set on Candida parapsilosis it was 64 µg/mL (≈ 229 µM).
The molecule `O=C(Cn1cnc2c(N3CCCCCC3)ncnc21)c1nccs1` yielded an HC50 in data set [1] above 256 µg/mL. Also, the MIC amounted to 256 µg/mL (≈ 748 µM) in the data set with Candida tropicalis; 256 µg/mL (≈ 748 µM) with Candida albicans [2]; 64 µg/mL (≈ 187 µM) in the data set on Aspergillus fumigatus; 8 µg/mL (≈ 23.4 µM) in the data set with Candida albicans [3]; 256 µg/mL (≈ 748 µM) with Candida parapsilosis.
As for `O=C(Cn1cnc2c(N3CCN(CC(=O)N(C4CCCCC4)C4CCCCC4)CC3)ncnc21)c1nccs1`, the HC50 in data set [1] was above 256 µg/mL. Also, the MIC with Candida tropicalis was 16 µg/mL (≈ 29.1 µM); in the data set on Candida albicans [2], 8 µg/mL (≈ 14.5 µM); in the data set on Aspergillus fumigatus, 32 µg/mL (≈ 58.1 µM); in the data set on Candida albicans [3] it was 256 µg/mL (≈ 465 µM); in the data set with Candida parapsilosis it was 16 µg/mL (≈ 29.1 µM).
As for `CCO/N=C(/Cn1cnc2c(N3CCN(CC(=O)OCC)CC3)ncnc21)c1nccs1`, in data set [1], the HC50 was above 256 µg/mL. Further, the MIC in the data set with Candida tropicalis was 128 µg/mL (≈ 279 µM); in the data set with Candida albicans [2], 64 µg/mL (≈ 140 µM); with Aspergillus fumigatus, 128 µg/mL (≈ 279 µM); in the data set with Candida albicans [3], 64 µg/mL (≈ 140 µM); in the data set with Candida parapsilosis, 128 µg/mL (≈ 279 µM).
Molecule `O=C(Cn1cnc2c(N3CCN(Cc4ccc(Cl)cc4)CC3)ncnc21)c1nccs1` showed an HC50 in data set [1] above 256 µg/mL. Besides, the MIC in the data set with Candida tropicalis turned out to be 4 µg/mL (≈ 8.81 µM); in the data set on Candida albicans [2], 32 µg/mL (≈ 70.5 µM); with Aspergillus fumigatus, 64 µg/mL (≈ 141 µM); in the data set with Candida albicans [3], 128 µg/mL (≈ 282 µM); in the data set on Candida parapsilosis, 64 µg/mL (≈ 141 µM).
In data set [1], `N#CCN1CCN(c2ncnc3c2ncn3CC(=O)c2nccs2)CC1` yielded an HC50 above 256 µg/mL. The MIC is 4 µg/mL (≈ 10.9 µM) in the data set on Candida tropicalis; 8 µg/mL (≈ 21.7 µM) in the data set with Candida albicans [2]; 16 µg/mL (≈ 43.4 µM) with Aspergillus fumigatus; 256 µg/mL (≈ 695 µM) with Candida albicans [3]; 8 µg/mL (≈ 21.7 µM) with Candida parapsilosis.
In data set [1], `CCN1CCN(c2ncnc3c2ncn3CC(=O)c2nccs2)CC1` returned an HC50 above 256 µg/mL. In addition, the MIC with Candida tropicalis is 16 µg/mL (≈ 44.8 µM); with Candida albicans [2] it was 32 µg/mL (≈ 89.5 µM); in the data set on Aspergillus fumigatus, 32 µg/mL (≈ 89.5 µM); in the data set on Candida albicans [3], 16 µg/mL (≈ 44.8 µM); with Candida parapsilosis, 256 µg/mL (≈ 716 µM).
Regarding `CCCCN1CCN(c2ncnc3c2ncn3CC(=O)c2nccs2)CC1`, in data set [1], the HC50 is above 256 µg/mL. The MIC came to 128 µg/mL (≈ 332 µM) in the data set on Candida tropicalis; 4 µg/mL (≈ 10.4 µM) in the data set with Candida albicans [2]; 256 µg/mL (≈ 664 µM) in the data set on Aspergillus fumigatus; 64 µg/mL (≈ 166 µM) with Candida albicans [3]; 64 µg/mL (≈ 166 µM) with Candida parapsilosis.

(Values after ChEMBL document CHEMBL4825682, “Discovery of novel purinylthiazolylethanone derivatives as anti-Candida albicans agents through possible multifaceted mechanisms” (Eur J Med Chem, 2021).)
